Measurements reported in the NIST ThermoML archive (doi:10.1016/j.jct.2013.12.025).

Assay: xn = mol fraction of the nth substance listed
Settings: 101 kPa, Liquid, Vibrating tube method

C=C[Si](C)(C)O[Si](C)(C)C=C [1,3-diethenyl-1,1,3,3-tetramethyldisiloxane] + Fc1ccccc1
mass density [kg/m3]
Settings | 283.15 K | 288.15 K | 293.15 K | 298.15 K | 303.15 K
x1 = 0.05 | 1013.6 | 1007.66 | 1001.73 | 995.86 | 989.74
x1 = 0.1 | 992.96 | 987.08 | 981.21 | 975.37 | 969.31
x1 = 0.15 | 974.59 | 968.74 | 962.94 | 957.17 | 951.1
x1 = 0.1993 | 958.3 | 952.51 | 946.77 | 941.03 | 934.98
x1 = 0.25 | 943.25 | 937.46 | 931.8 | 926.13 | 920.12
x1 = 0.2999 | 929.85 | 924.19 | 918.57 | 913 | 907.17
x1 = 0.35 | 917.58 | 911.93 | 906.37 | 900.84 | 895
x1 = 0.4 | 906.43 | 900.85 | 895.33 | 889.86 | 884.09
x1 = 0.45 | 896.19 | 890.66 | 885.22 | 879.75 | 874.12
x1 = 0.5 | 886.76 | 881.29 | 875.91 | 870.51 | 864.97
x1 = 0.5501 | 878.08 | 872.69 | 867.38 | 862.04 | 856.56
x1 = 0.6 | 870.07 | 864.73 | 859.45 | 854.19 | 848.77
x1 = 0.6501 | 862.6 | 857.33 | 852.11 | 846.89 | 841.53
x1 = 0.7 | 855.69 | 850.46 | 845.29 | 840.15 | 834.87
x1 = 0.7501 | 849.23 | 844.06 | 838.93 | 833.84 | 828.63
x1 = 0.8 | 843.23 | 838.1 | 833.02 | 827.99 | 822.84
x1 = 0.85 | 837.56 | 832.51 | 827.46 | 822.49 | 817.39
x1 = 0.8998 | 832.28 | 827.28 | 822.3 | 817.36 | 812.32
x1 = 0.95 | 827.28 | 822.33 | 817.38 | 812.49 | 807.52
x1 = 1 | 822.56 | 817.66 | 812.74 | 807.9 | 802.97

C=C[Si](C)(C)O[Si](C)(C)C=C [1,3-diethenyl-1,1,3,3-tetramethyldisiloxane] + O=[N+]([O-])c1ccccc1
mass density [kg/m3]
Settings | 283.15 K | 288.15 K | 293.15 K | 298.15 K | 303.15 K
x1 = 0.05 | 1176.35 | 1171.43 | 1166.52 | 1161.69 | 1156.82
x1 = 0.1 | 1142.71 | 1137.83 | 1132.97 | 1128.22 | 1123.45
x1 = 0.15 | 1111.83 | 1106.98 | 1102.13 | 1097.43 | 1092.67
x1 = 0.2 | 1083.35 | 1078.52 | 1073.67 | 1068.96 | 1064.2
x1 = 0.25 | 1057.23 | 1052.41 | 1047.57 | 1042.87 | 1038.12
x1 = 0.3 | 1033.06 | 1028.23 | 1023.4 | 1018.69 | 1013.92
x1 = 0.3508 | 1010.38 | 1005.54 | 1000.74 | 996.01 | 991.23
x1 = 0.4001 | 989.98 | 985.14 | 980.32 | 975.57 | 970.77
x1 = 0.4501 | 970.75 | 965.91 | 961.08 | 956.32 | 951.52
x1 = 0.4999 | 952.93 | 948.07 | 943.22 | 938.45 | 933.61
x1 = 0.55 | 936.17 | 931.3 | 926.44 | 921.66 | 916.81
x1 = 0.6001 | 920.46 | 915.57 | 910.7 | 905.91 | 901.03
x1 = 0.6487 | 906.15 | 901.26 | 896.39 | 891.58 | 886.71
x1 = 0.6999 | 891.87 | 887 | 882.12 | 877.3 | 872.42
x1 = 0.7499 | 878.8 | 873.92 | 869.03 | 864.21 | 859.31
x1 = 0.7999 | 866.41 | 861.51 | 856.6 | 851.77 | 846.84
x1 = 0.8497 | 854.66 | 849.77 | 844.87 | 840.06 | 835.12
x1 = 0.9 | 843.43 | 838.53 | 833.62 | 828.8 | 823.86
x1 = 0.9499 | 832.79 | 827.88 | 822.98 | 818.14 | 813.2
x1 = 1 | 822.64 | 817.73 | 812.82 | 807.98 | 803.03
